Laboratory results taken from ChEMBL document CHEMBL4007472, “Identification of novel TACE inhibitors compatible with topical application” (Bioorg Med Chem Lett, 2017).
Each block holds one compound with its values, some of them ahead of it.

Tests used:
[1] = molecular target: T1, Disintegrin and metalloproteinase domain-containing protein 17 (Homo sapiens, UniProt P78536); assay: Inhibition of recombinant human TACE catalytic domain using Mca-Pro-Leu-Ala-Gln-Ala-Val-Dpa-Arg-Ser-Ser-Ser-Arg-NH2 as substrate after 2 hrs by fluorescence assay
T1 sequence (P78536 whole entry, the tested form may be a part): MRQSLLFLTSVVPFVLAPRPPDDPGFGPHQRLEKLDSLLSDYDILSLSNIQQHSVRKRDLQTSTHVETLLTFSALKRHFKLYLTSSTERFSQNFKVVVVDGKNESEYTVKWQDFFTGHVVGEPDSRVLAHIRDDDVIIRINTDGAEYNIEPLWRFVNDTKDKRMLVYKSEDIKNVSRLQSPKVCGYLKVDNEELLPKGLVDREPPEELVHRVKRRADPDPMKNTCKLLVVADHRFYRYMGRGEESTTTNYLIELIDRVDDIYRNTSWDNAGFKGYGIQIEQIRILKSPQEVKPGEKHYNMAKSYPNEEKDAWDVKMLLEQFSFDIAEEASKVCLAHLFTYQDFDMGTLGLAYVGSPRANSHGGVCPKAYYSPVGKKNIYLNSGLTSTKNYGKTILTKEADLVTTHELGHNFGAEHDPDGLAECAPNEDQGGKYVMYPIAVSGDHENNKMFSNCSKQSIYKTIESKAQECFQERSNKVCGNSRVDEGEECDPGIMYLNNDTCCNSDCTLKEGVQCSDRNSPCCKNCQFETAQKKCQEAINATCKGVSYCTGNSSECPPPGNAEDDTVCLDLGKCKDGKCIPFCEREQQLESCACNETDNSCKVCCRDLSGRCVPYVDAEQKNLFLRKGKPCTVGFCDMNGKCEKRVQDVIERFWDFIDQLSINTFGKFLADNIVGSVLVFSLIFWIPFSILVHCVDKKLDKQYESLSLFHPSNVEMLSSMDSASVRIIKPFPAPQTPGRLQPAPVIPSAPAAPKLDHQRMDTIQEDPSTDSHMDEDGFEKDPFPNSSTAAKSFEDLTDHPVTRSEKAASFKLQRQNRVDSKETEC

[2] = molecular target: Disintegrin and metalloproteinase domain-containing protein 17 (Mus musculus, UniProt Q9Z0F8); assay: Inhibition of TACE in mouse RAW264.7 cells assessed as inhibition of LPS-stimulated TNFalpha production pretreated for 1 hr followed by LPS stimulation for 4 hrs by ELISA; format: cell-based
Disintegrin and metalloproteinase domain-containing protein 17 (Mus musculus, UniProt Q9Z0F8), sequence (Q9Z0F8 whole entry, the tested form may be a part): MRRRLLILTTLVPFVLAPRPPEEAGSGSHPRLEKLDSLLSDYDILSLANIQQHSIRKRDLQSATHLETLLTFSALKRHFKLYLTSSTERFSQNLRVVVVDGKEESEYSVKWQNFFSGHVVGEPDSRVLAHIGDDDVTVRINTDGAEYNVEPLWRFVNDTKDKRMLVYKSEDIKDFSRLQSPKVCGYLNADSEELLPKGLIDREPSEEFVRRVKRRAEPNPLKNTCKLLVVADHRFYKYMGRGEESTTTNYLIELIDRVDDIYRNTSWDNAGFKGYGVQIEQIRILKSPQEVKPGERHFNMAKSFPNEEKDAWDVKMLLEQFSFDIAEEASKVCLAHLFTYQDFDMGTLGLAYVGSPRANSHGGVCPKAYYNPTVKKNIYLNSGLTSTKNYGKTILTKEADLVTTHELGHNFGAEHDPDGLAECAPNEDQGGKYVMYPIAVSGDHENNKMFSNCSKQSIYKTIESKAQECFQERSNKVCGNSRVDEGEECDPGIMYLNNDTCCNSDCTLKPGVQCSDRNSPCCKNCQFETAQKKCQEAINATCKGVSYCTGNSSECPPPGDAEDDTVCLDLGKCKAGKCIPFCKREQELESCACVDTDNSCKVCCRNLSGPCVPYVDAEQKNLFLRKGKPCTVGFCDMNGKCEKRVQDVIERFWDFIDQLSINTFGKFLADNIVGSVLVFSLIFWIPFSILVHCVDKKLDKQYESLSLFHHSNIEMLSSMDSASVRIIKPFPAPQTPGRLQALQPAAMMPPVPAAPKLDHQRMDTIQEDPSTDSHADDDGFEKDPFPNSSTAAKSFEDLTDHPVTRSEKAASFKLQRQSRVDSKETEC

[3] = molecular target: T1, Disintegrin and metalloproteinase domain-containing protein 17; assay: Inhibition of recombinant TACE catalytic domain (unknown origin) using Abz-LAQAVRSSSR-Dpa as substrate preincubated for 10 mins followed by substrate addition measured after 10 mins by FRET assay

IC50 [1]: 110 nM
SMILES: Cc1cc(COc2ccc(S(=O)(=O)N3CCNC(C(=O)NO)C3)cc2)c2c(n1)CCCC2 (centres undefined)

IC50 ([2]; read-out: IC50): 1000 nM
IC50 ([3]; read-out: IC50): 0.6 nM
SMILES: Cc1cc(COc2ccc(S(=O)(=O)N[C@@H]3CCN(C=O)C[C@]3(C)C(=O)NO)cc2)c2ccccc2n1

IC50 ([2]; read-out: IC50): 1000 nM
IC50 ([3]; read-out: pIC50 (converted)): 20 nM
SMILES: C#CCN1CC[C@@H](NS(=O)(=O)c2ccc(OCc3cc(C)nc4ccccc34)cc2)[C@@](C)(C(=O)NO)C1

IC50 ([2]; read-out: IC50): 10 nM
IC50 ([3]; read-out: pIC50 (converted)): 1 nM
SMILES: Cc1cc(COc2ccc(S(=O)(=O)N(C)[C@H]3[C@@H](C(=O)NO)[C@@H]4CC[C@H]3O4)cc2)c2ccccc2n1

IC50 [1]: 35 nM
SMILES: Cc1cc(COc2ccc(S(=O)(=O)N3CCC(CC(C)C)(C(=O)NO)C3)cc2)c2ccccc2n1 (centres undefined)

IC50 [1]: > 10000 nM
SMILES: CC#CCOc1ccc(S(=O)(=O)N2CCC(C(=O)NO)C2)cc1 (centres undefined)

IC50 [1]: 10000 nM
SMILES: CC#CCOc1ccc(S(=O)(=O)[C@@H]2C[C@@H](C(=O)NO)N(C(C)=O)C2)cc1

IC50 [1]: > 10000 nM
SMILES: CC#CCOc1ccc(S(=O)(=O)[C@@H]2C[C@H](C(=O)NO)N(C(C)=O)C2)cc1

IC50 [1]: > 10000 nM
SMILES: CC(=O)N1C[C@@H](S(=O)(=O)c2ccc(OCc3cc(C)nc4c3CCCC4)cc2)C[C@@H]1C(=O)NO

IC50 ([2]; read-out: IC50): 82 nM
SMILES: Cc1cc(COc2ccc(S(=O)(=O)N[C@@H]3CCC[C@]3(O)C(=O)NO)cc2)c2ccccc2n1

IC50 ([2]; read-out: IC50): 762 nM
IC50 ([3]; read-out: pIC50 (converted)): 2.51 nM
SMILES: Cc1cc(COc2ccc(S(=O)(=O)N[C@@H]3CCN(S(=O)(=O)C(C)C)C[C@]3(C)C(=O)NO)cc2)c2ccccc2n1

IC50 [1]: > 10000 nM
SMILES: CC#CCOc1ccc(S(=O)(=O)[C@H]2C[C@@H](C(=O)NO)N(C(C)=O)C2)cc1

IC50 ([2]; read-out: IC50): 58 nM
IC50 ([3]; read-out: IC50): 0.7 nM
SMILES: Cc1cc(COc2ccc(S(=O)(=O)N[C@@H]3CN(C(=O)OC(C)(C)C)CC[C@H]3C(=O)NO)cc2)c2ccccc2n1

IC50 [1]: 42 nM
SMILES: Cc1cc(COc2ccc(S(=O)(=O)N3CCC(Cc4ccccc4)(C(=O)NO)C3)cc2)c2ccccc2n1 (centres undefined)

IC50 ([2]; read-out: IC50): 1920 nM
IC50 ([3]; read-out: pIC50 (converted)): 6.31 nM
SMILES: Cc1cc(COc2ccc(S(=O)(=O)N[C@@H]3CCOC[C@@]3(C)C(=O)NO)cc2)c2ccccc2n1

IC50 [1]: 71 nM
SMILES: Cc1cc(COc2ccc(S(=O)(=O)N3CCCOC(C(=O)NO)C3)cc2)c2ccccc2n1 (centres undefined)

IC50 ([2]; read-out: IC50): 1000 nM
IC50 ([3]; read-out: pIC50 (converted)): 100 nM
SMILES: Cc1cc(COc2ccc(S(=O)(=O)N[C@@H]3CCNC[C@]3(O)C(=O)NO)cc2)c2ccccc2n1

IC50 ([2]; read-out: IC50): 51 nM
IC50 ([3]; read-out: pIC50 (converted)): 1.26 nM
SMILES: CCNC(=O)N1C[C@H](C(=O)NO)[C@H](NS(=O)(=O)c2ccc(OCc3cc(C)nc4ccccc34)cc2)C1 (relative stereo)

IC50 ([2]; read-out: IC50): 17 nM
SMILES: Cc1cc(COc2ccc(S(=O)(=O)N[C@@H]3CCOC[C@@H]3C(=O)NO)cc2)c2ccccc2n1 (relative stereo)

IC50 ([2]; read-out: IC50): 20 nM
SMILES: Cc1cc(COc2ccc(S(=O)(=O)N[C@@H]3CN(C=O)C[C@@H]3C(=O)NO)cc2)c2ccccc2n1 (relative stereo)

IC50 ([2]; read-out: IC50): 7 nM
SMILES: Cc1cc(COc2ccc(S(=O)(=O)N[C@@H]3CCN(C=O)C[C@@H]3C(=O)NO)cc2)c2ccccc2n1

Second part, the compound before the results:

SMILES: CC(=O)N1C[C@H](S(=O)(=O)c2ccc(OCc3cc(C)nc4c3CCCC4)cc2)C[C@@H]1C(=O)NO
IC50 [1]: > 10000 nM

SMILES: Cc1cc(COc2ccc(C(=O)N3CCC(C(=O)NO)C3)cc2)c2c(n1)CCCC2 (centres undefined)
IC50 [1]: 6500 nM

SMILES: CCC1(C(=O)NO)CCN(S(=O)(=O)c2ccc(OCc3cc(C)nc4ccccc34)cc2)C1 (centres undefined)
IC50 [1]: 16 nM

SMILES: CC#CCOc1ccc(C(=O)N2CCC(C(=O)NO)C2)cc1 (centres undefined)
IC50 [1]: > 10000 nM

SMILES: C#CCN1C[C@H](C(=O)NO)[C@H](NS(=O)(=O)c2ccc(OCc3cc(C)nc4ccccc34)cc2)C1 (relative stereo)
IC50 ([2]; read-out: IC50): 90 nM

SMILES: Cc1cc(COc2ccc(S(=O)(=O)N[C@@H]3CCN(C(=O)OC(C)(C)C)C[C@@H]3C(=O)NO)cc2)c2ccccc2n1
IC50 ([2]; read-out: IC50): 460 nM
IC50 ([3]; read-out: IC50): 0.5 nM

SMILES: CC(=O)N1C[C@H](C(=O)NO)[C@H](NS(=O)(=O)c2ccc(OCc3cc(C)nc4ccccc34)cc2)C1 (relative stereo)
IC50 ([2]; read-out: IC50): 20 nM
IC50 ([3]; read-out: IC50): 0.6 nM

SMILES: CC[C@]1(C(=O)NO)CCC[C@H]1N(C)S(=O)(=O)c1ccc(OCc2cc(C)nc3ccccc23)cc1
IC50 ([2]; read-out: IC50): 1000 nM
IC50 ([3]; read-out: pIC50 (converted)): 10 nM

SMILES: CNC(=O)N1CC[C@@H](NS(=O)(=O)c2ccc(OCc3cc(C)nc4ccccc34)cc2)[C@@](C)(C(=O)NO)C1
IC50 ([2]; read-out: IC50): 1000 nM
IC50 ([3]; read-out: pIC50 (converted)): 3.98 nM

SMILES: Cc1cc(COc2ccc(S(=O)(=O)N[C@@H]3CCN(C(C)C)C[C@]3(C)C(=O)NO)cc2)c2ccccc2n1
IC50 ([2]; read-out: IC50): 1000 nM
IC50 ([3]; read-out: pIC50 (converted)): 200 nM

SMILES: CC#CCOc1ccc(S(=O)(=O)[C@H]2C[C@H](C(=O)NO)N(C(C)=O)C2)cc1
IC50 [1]: > 10000 nM

SMILES: Cc1cc(COc2ccc(S(=O)(=O)N3CCOC(C(=O)NO)C3)cc2)c2ccccc2n1 (centres undefined)
IC50 [1]: 180 nM

SMILES: Cc1cc(COc2ccc(S(=O)(=O)N(C)C3C(C(=O)NO)[C@@H]4CC[C@H]3O4)cc2)c2ccccc2n1 (relative stereo; form 1)
IC50 ([2]; read-out: IC50): 250 nM
IC50 ([3]; read-out: IC50): 43 nM

SMILES: Cc1cc(COc2ccc(S(=O)(=O)N[C@@H]3CN(C=O)CCC3C(=O)NO)cc2)c2ccccc2n1 (some centres undefined)
IC50 ([2]; read-out: IC50): 21 nM

SMILES: CC(=O)N1C[C@H](S(=O)(=O)c2ccc(OCc3cc(C)nc4c3CCCC4)cc2)C[C@H]1C(=O)NO
IC50 [1]: 3600 nM

SMILES: Cc1cc(COc2ccc(S(=O)(=O)N(C)[C@@H]3CC=CC[C@@H]3C(=O)NO)cc2)c2ccccc2n1 (relative stereo)
IC50 ([2]; read-out: IC50): 1000 nM

SMILES: CC[C@]1(C(=O)NO)CCC[C@H]1NS(=O)(=O)c1ccc(OCc2cc(C)nc3ccccc23)cc1
IC50 ([2]; read-out: IC50): 1000 nM
IC50 ([3]; read-out: pIC50 (converted)): 2.51 nM

SMILES: Cc1cc(COc2ccc(S(=O)(=O)N[C@]3(C)CCCC[C@@H]3C(=O)NO)cc2)c2ccccc2n1 (racemic)
IC50 ([2]; read-out: IC50): 25 nM
IC50 ([3]; read-out: IC50): 0.6 nM

SMILES: Cc1cc(COc2ccc(S(=O)(=O)N[C@H]3CCN(C(=O)NC(C)(C)C)C[C@H]3C(=O)NO)cc2)c2ccccc2n1 (relative stereo)
IC50 ([2]; read-out: IC50): 30 nM
IC50 ([3]; read-out: IC50): 0.6 nM

SMILES: Cc1cc(COc2ccc(S(=O)(=O)N[C@@H]3CCC[C@@H]3C(=O)NO)cc2)c2ccccc2n1 (relative stereo)
IC50 ([2]; read-out: IC50): 9 to 11 nM
IC50 ([2]; read-out: pIC50 (converted)): 10 nM
IC50 ([3]; read-out: pIC50 (converted)): 0.631 nM

SMILES: Cc1cc(COc2ccc(S(=O)(=O)N[C@@H]3CN(C(=O)OC(C)(C)C)C[C@@H]3C(=O)NO)cc2)c2ccccc2n1 (relative stereo)
IC50 ([2]; read-out: IC50): 38 nM
IC50 ([3]; read-out: IC50): 0.6 nM

SMILES: CC(=O)N1CCN(S(=O)(=O)c2ccc(OCc3cc(C)nc4c3CCCC4)cc2)CC1(C)C(=O)NO (centres undefined)
IC50 [1]: 30 nM

SMILES: Cc1cc(COc2ccc(S(=O)(=O)N3CCCC(C)(C(=O)NO)C3)cc2)c2c(n1)CCCC2 (centres undefined)
IC50 [1]: 40 nM

SMILES: Cc1cc(COc2ccc(S(=O)(=O)NC3CCN(CCO)CC3C(=O)NO)cc2)c2ccccc2n1 (centres undefined)
IC50 ([2]; read-out: IC50): 180 nM
IC50 ([3]; read-out: pIC50 (converted)): 3.16 nM

SMILES: Cc1cc(COc2ccc(S(=O)(=O)N[C@@H]3CCCC[C@@H]3C(=O)NO)cc2)c2ccccc2n1 (relative stereo)
IC50 ([2]; read-out: IC50): 80 nM
IC50 ([3]; read-out: IC50): 1 nM

SMILES: Cc1cc(COc2ccc(S(=O)(=O)N[C@@H]3CCN(C=O)C[C@]3(O)C(=O)NO)cc2)c2ccccc2n1
IC50 ([2]; read-out: IC50): 160 nM
IC50 ([3]; read-out: pIC50 (converted)): 1.26 nM

SMILES: Cc1cc(COc2ccc(S(=O)(=O)N(C)[C@@H]3CCOC[C@@H]3C(=O)NO)cc2)c2ccccc2n1 (relative stereo)
IC50 ([2]; read-out: IC50): 1000 nM

SMILES: Cc1cc(COc2ccc(S(=O)(=O)N(C)[C@H]3CCCC[C@@H]3C(=O)NO)cc2)c2ccccc2n1 (relative stereo)
IC50 ([2]; read-out: IC50): 911 nM
IC50 ([3]; read-out: IC50): 1.4 nM

SMILES: Cc1cc(COc2ccc(S(=O)(=O)N(C)[C@@H]3CCC[C@@H]3C(=O)NO)cc2)c2ccccc2n1 (relative stereo)
IC50 ([2]; read-out: IC50): 93 nM
IC50 ([3]; read-out: IC50): 0.6 nM

SMILES: Cc1cc(COc2ccc(S(=O)(=O)N[C@H]3CCCC[C@@H]3C(=O)NO)cc2)c2ccccc2n1 (relative stereo)
IC50 ([2]; read-out: IC50): 60 nM
IC50 ([3]; read-out: IC50): 1.8 nM

SMILES: CC(=O)N1CCC(NS(=O)(=O)c2ccc(OCc3cc(C)nc4ccccc34)cc2)C(C(=O)NO)C1 (centres undefined)
IC50 ([2]; read-out: IC50): 20 nM
IC50 ([3]; read-out: pIC50 (converted)): 1 nM

SMILES: CC#CCOc1ccc(S(=O)(=O)N2CCN(C(C)=O)C(C(=O)NO)C2)cc1 (centres undefined)
IC50 [1]: 1500 nM

SMILES: Cc1cc(COc2ccc(S(=O)(=O)N(C)C3C(C(=O)NO)[C@@H]4CC[C@H]3O4)cc2)c2ccccc2n1 (relative stereo; form 2)
IC50 ([2]; read-out: IC50): 18 nM
IC50 ([3]; read-out: IC50): 2 nM

SMILES: CC(=O)N1CCC(C(=O)NO)C(NS(=O)(=O)c2ccc(OCc3cc(C)nc4ccccc34)cc2)C1 (centres undefined)
IC50 ([2]; read-out: IC50): 202 nM
IC50 ([3]; read-out: pIC50 (converted)): 1.26 nM

SMILES: Cc1cc(COc2ccc(S(=O)(=O)N[C@@H]3CNC[C@@H]3C(=O)NO)cc2)c2ccccc2n1 (relative stereo)
IC50 ([2]; read-out: IC50): 90 nM
IC50 ([3]; read-out: IC50): 4.7 nM

SMILES: Cc1cc(COc2ccc(S(=O)(=O)N[C@@H]3CCOC[C@]3(C)C(=O)NO)cc2)c2ccccc2n1
IC50 ([2]; read-out: IC50): 1670 nM

SMILES: CC(=O)N1CCCN(S(=O)(=O)c2ccc(OCc3cc(C)nc4ccccc34)cc2)CC1C(=O)NO (centres undefined)
IC50 [1]: 200 nM

SMILES: CC(=O)N1CCN(C(=O)c2ccc(OCc3cc(C)nc4c3CCCC4)cc2)CC1C(=O)NO (centres undefined)
IC50 [1]: 760 nM
